Assays:
[1] = tested on: OV-1063 cells; test: Platinum complex intracellular accumulation (FAAS); type: cell-based, human; conditions: OV-1063, 24 hr
Procedure: (§1) Cells were seeded for 48 hr before one of the complexes was added to the culture medium. After 24 hr of exposure, the complexes were removed and the cells washed twice with ice-cold PBS and pelleted. The cells (1*10^6) were dried and mineralized by heating for 10 min in 65% HNO3 (BDH, England)^(22). Samples were dissolved in de-ionized water and each sample was measured at two different dilutions by flameless Zeeman atomic absorption spectrometer (FAAS). The calibration curves included 5 standards of K2PtCl4 stock solution with concentrations ranging from 50 to 250 ng platinum per ml. Platinum content was expressed as picomoles platinum per 1*10^6 cells.
(§2) The Pt content associated with the cells was measured by Atomic Absorption Spectroscopy (AAS).

[2] = tested on: C-26 cells; test: Platinum complex intracellular accumulation (FAAS); type: cell-based, human; conditions: C-26, 24 hr
Procedure: as §1, §2

[3] = tested on: calf thymus DNA; test: DNA binding (calf thymus DNA platination)
Procedure: The formation of calf thymus DNA platination was also examined. To this end, calf thymus DNA was incubated with different compounds (Table 3) in which the following parameters were determined: […]

[4] = tested on: A2780; test: Microculture tetrazolium (MTS) cell survival assay; type: cell-based; conditions: 24 hours incubation
Procedure: (§3) Cytotoxicity of the synthesized complexes was also tested by the MTS method^(21). Accordingly, the compounds were incubated for 24 hours with the corresponding cell lines and the cell survival in compound-treated cultures was evaluated.
(§4) The complexes were incubated for 24 hours with the above mentioned cell lines and the cell survival in compound-treated cultures was evaluated by the (microculture tetrazolium) MTS method as previously reported.

[5] = tested on: 41McisR; test: Microculture tetrazolium (MTS) cell survival assay; type: cell-based
Procedure: as §3, §4

[6] = tested on: 41M; test: Microculture tetrazolium (MTS) cell survival assay; type: cell-based; conditions: 24 hours incubation
Procedure: as §3, §4

[7] = tested on: CH1; test: Microculture tetrazolium (MTS) cell survival assay; type: cell-based; conditions: 24 hours incubation
Procedure: as §3, §4

[8] = tested on: CH1cisR; test: Microculture tetrazolium (MTS) cell survival assay; type: cell-based
Procedure: as §3, §4

[9] = tested on: A2780cisR; test: Microculture tetrazolium (MTS) cell survival assay; type: cell-based
Procedure: as §3, §4

[10] = tested on: OV-1063 cells; conditions: 5 hr, 6.5 μM
Source text: (§5) (1) By staining of the C-26 and OV-1063 cells with Merocyanine 540 (MC 540) (Molecular probes, Oregon, USA) and 4′, 6-diamidino-2-phenylindone dihydrochloride (DAPI) (Molecular probes, Oregon, USA). This assay is based on the observation that soon after the initiation of apoptosis, phosphatidylserine (PS) translocates from the inner face of the plasma membrane to the cell surface. At this point, PS can be easily detected by staining with MC 540, which has a strong affinity to PS^(25). Chromatin condensation was assessed by staining with DAPI, which preferentially stains double stranded DNA. In the following experiments samples containing 5*10^5 cells were cultured on 6-well plates covered with a glass coverslip. After treatment of cells with IC50 of the complexes, cells were washed with PBS and incubated for 2 min in the dark in 500 μl of PBS containing 2.5 μl of MC 540 (1 mg/ml). After that cells were washed with PBS, fixated with 4% formaldehyde and stained with 300 μl DAPI (3 μM). Thereafter, glass coverslip was placed on a glass slide and photographed using a fluorescence confocal microscope.
(§6) Apoptosis, also known as programmed cell death, is involved in the regulation of cell number in multicellular organism, and the pathogenesis of various diseases, including tumor progression, neurodegenerative disorders and viral infections. […]

[11] = tested on: C-26 cells; conditions: 5 hr, 4.5 μM
Source text: as §5, §6

[12] = tested on: caspase-3 in C-26 cells; test: EnzChek Caspase-3 assay; type: cell-based, human; conditions: 4.5 μM complex, cisplatin 1.5 μM, 5 or 16 hrs
Source text: (§7) (2) By the EnzChektm Caspase-3 Assay Kit (Molecular probes, Eugene, Oreg.). This Kit allows the detection of apoptosis by assaying for increases in caspase-3 and other DEVD-specific protease activities (e.g., caspase-7). The basis for the assay is rodamine 110 bis-(N-CBZ-aspartil-L-glutarnyl-L-valyl-aspartic acid amide) (Z-DEVD-R110). This substrate is a bisamide derivative of rhodamine 110(R110) containing DEVD peptides covalently linked to each of R110's amino groups. Upon enzymatic cleavage, the non-fluorescent bisamide substrate converted to the fluorescent R110, which can be quantified by fluorescence microplate reader using excitation at 485±10 nm and emission detection at 535±10 nm.
(§8) (12) (5 μM and 7.5 μM, respectively) for 5 or 16 hr. Both “induced” and “control” cells were then harvested and lysed. Enzyme reactions were performed in 96-well plates with 50 μg of cytosolic proteins (55 minutes of incubation) and with a final concentration of 25 μM Z-DEVD-R110 substrate as described in the kit protocol.

[13] = tested on: caspase-3 in OV-1063 cells; test: EnzChek Caspase-3 assay; type: cell-based, human
Source text: as §7, §8

SMILES: C1CCNCC1.Cc1ccncc1.[Cl][Pt][Cl] [Complex 5, trans-[PtCl2(4-picoline)(piperidine)]]
- Penetration to cells [1]: 2092 pmol Pt/1 * 10^6 cells
- Penetration to cells [2]: 14974 pmol Pt/1 * 10^6 cells
- % IEC/adduct, frequency of interstrand crosslinks [3]: 2%
- unwinding angle per adduct [3]: 11°
- t1/2 half time of the binding to calf thymus DNA ([3]; 10 mM NaClO4, 37° C., ri = 0.08, differential pulse polarography): 4.33 h
- ΔTm, 0.01M Na+ ([3]; rb = 0.05, 0.01M Na+): +5.5 0.C
- ΔTm, 0.2 M ([3]; rb = 0.05, 0.2 M): +0.5 0.C
- ΔΔεmax, maximum of the positive CD band at around 275 nm ([3]; rb = 0.05, difference between control and platinated DNA): 0.04
- IC50 [4]: 9 ± 1 µM
- resistance factor (IC50 resistant/IC50 sensitive) ([5]; 41McisR/41M): 6.0
- IC50 ([5]; 24 hours incubation, MTS): 210 µM
- IC50 [6]: 35 ± 4 µM
- IC50 [7]: 26 ± 3 µM
- IC50 ([8]; 24 hours incubation, MTS): 169 ± 9 µM
- resistance factor (IC50 resistant/IC50 sensitive) ([8]; CH1cisR/CH1): (6.5)
- IC50 ([9]; 24 hours incubation, MTS): 135 ± 7 µM
- resistance factor (IC50 resistant/IC50 sensitive) ([9]; A2780cisR/A2780): 15
- apoptosis by MC 540/DAPI staining [10]: large proportion of the OV-1063 cells appeared to be apoptotic
- apoptosis by MC 540/DAPI staining [11]: slightly red-fluorescent
- caspase-3 fluorescent signal [12]: no fluorescent signal
- caspase-3 activation, increase in fluorescence vs untreated cells ([13]; 5 hr, 6.5 μM piperidine complex or 7.5 μM piperazine complex): ~2 fold
- caspase-3 activation, increase in fluorescence vs untreated cells ([13]; 16 hr): 3 fold

— US7122668B2, “Platinum complexes and their use in therapy” (priority 2002, dated 2006)
